From patent US12510479B2, “Systems, devices, and methods for compound screening using predictive tagging” (ALLEN INSTITUTE, priority 2020, dated 2025)
“Also recorded” adds a separate entry of the source.

Legend:
Assay type in all cases: cell-based, human
hiPSC = assay: Effect on microtubules and DNA during mitosis (FIG. 7)
Excerpt: Microtubules, DNA, and Cell membrane are each labeled.

[1] = test system: hiPSC Cell Line ID: AICS-0061 c1.36 Histone H2B type 1-J mEGFP-tagged; assay: Fluorescence imaging of Histone H2B mEGFP-tagged hiPSCs (FIG. 8E-8F); details: 5 μM, 2 hours; mEGFP DNA tag; vs DMSO control
Excerpt: (§1) The fluorescent signal from the hiPSC Cell Line ID: AICS-0061 c1.36 Histone H2B type 1-J mEGFP-tagged (DNA tag) was used to train and validate the label free prediction model.

[2] = test system: hiPSC Cell Line ID: AICS-0061 c1.36 Histone H2B type 1-J mEGFP-tagged; assay: Label free prediction of condensed DNA from brightfield images (FIG. 8C-8D); details: 5 μM, 2 hours, vs DMSO control
Excerpt: as §1
FIGS. 8C and 8D show the predicted images, based on the label free prediction model, obtained by imaging the nucleus of the cells with brightfield microscopy, and predicting the location and amount of condensed DNA, based on the trained model.

[3] = test system: Cell Line ID: AICS-0012 c1.105, Alpha tubulin mEGFP-tagged; assay: Fluorescence imaging of Alpha tubulin mEGFP-tagged hiPSCs (FIG. 9E-9F); details: 5 μM, 2 hours, vs DMSO control
Excerpt: (§2) Predicted imaging was also used with H2B (DNA) on Cell Line ID: AICS-0012 c1.105, Alpha tubulin mEGFP-tagged, to confirm the phenotype by two structures from the same cells.

[4] = test system: Cell Line ID: AICS-0012 c1.105, Alpha tubulin mEGFP-tagged; assay: Label free prediction of condensed DNA from brightfield images (FIG. 9C-9D); details: 5 μM, 2 hours, vs DMSO control
Excerpt: as §2
FIGS. 9C and 9D show the predicted images, based on the label free prediction model, obtained by imaging the nucleus of the cells with brightfield microscopy, and predicting the location and amount of condensed DNA, based on the trained model.

AICS-61 (Histone) = assay: Predicted, label free imaging of drug effects (FIG. 10B, 10G); details: AICS-61 cells; predicted label free images
Excerpt: (§3) FIGS. 10A-10H show the predicted, label free imaging effects of different drugs on different, differentiated, hiPSC cell lines. […] Brefeldin inhibits protein transport from the endoplasmic reticulum to the golgi complex indirectly by preventing association of COP-I coat to the Golgi membrane.

[5] = test system: EGFP-tagged cell lines AICS-23, AICS-44, AICS-61, AICS-24 and AICS-16; assay: Drug perturbation signature using label free prediction of DNA (FIG. 11A-11C); details: population statistics after DNA segmentation of label free prediction
Description: FIG. 11A-11C show the drug perturbation signature using label free prediction, as described herein.
These signatures were distinct from those of other drug perturbations such as BIX, Brefeldin, H89, and Monensin. The identification of these perturbation signatures were performed in the following EGFP-tagged cell lines; AICS-23 (tight junction), AICS-44 (Golgi), AICS-61 (Histone), AICS-24 (non-muscle Myosin) and AICS-16 (beta Actin) without additional introduction of DNA signals.

AICS-44 (Golgi) = assay: Predicted, label free imaging of drug effects (FIG. 10C, 10E); details: AICS-44 cells; predicted label free images
Excerpt: as §3

AICS-16 (beta Actin) = assay: Predicted, label free imaging of drug effects (FIG. 10F, 10H); details: AICS-16 cells; predicted label free images
Excerpt: as §3

[6] = test system: AICS-24 (non-muscle Myosin); assay: Predicted, label free imaging of drug effects (FIG. 10D); details: AICS-24 cells; predicted label free images
Excerpt: as §3

With `CC(=O)O[C@H]1C(=O)[C@@]2(C)[C@H]([C@H](OC(=O)c3ccccc3)[C@]3(O)C[C@H](OC(=O)[C@H](O)[C@@H](NC(=O)c4ccccc4)c4ccccc4)C(C)=C1C3(C)C)[C@]1(OC(C)=O)CO[C@@H]1C[C@@H]2O` [Paclitaxel] the microtubule bundle thickness (hiPSC) was “increases microtubule bundle thickness”, the “effect on hiPSC division” value (hiPSC; mitosis) was “arrest of cells in metaphase” and the microtubule density (hiPSC; mitosis, FIG. 7) was “increase in microtubule density”. For the same compound, the “condensed DNA, fluorescence image” value [1] was “increase in condensed DNA”, the “amount of condensed DNA in predicted images” value [2] was “higher than the control cells” and the “microtubule formation, fluorescence image” value [3] was “increase in microtubule formation”. For the same compound, the “amount of condensed DNA in predicted images” value [4] was “higher than the control cells”, the “predicted effect on DNA, nuclear size, or microtubule formation” value (shortened to “predicted effect on DNA, nuclear size”) (AICS-61 (Histone)) was “condensed DNA (condensed microtubules)” and the “condensed DNA frequency (perturbation signature in predicted images)” value [5] was “increase in frequency of DNA condensation frequency; also recorded: increased condensed DNA Frequency”. The “nuclear density (perturbation signature in predicted images)” value [5] was “higher nuclear density” and the “nuclear volume (perturbation signature in predicted images)” value [5] was “larger nuclear volume”.
`C[C@H]1CCC/C=C/[C@@H]2C[C@H](O)C[C@H]2[C@H](O)/C=C/C(=O)O1` [Brefeldin] was tested, and the “predicted effect on DNA, nuclear size” value (AICS-44 (Golgi)) was “no predicted effect on DNA, nuclear size, or microtubule formation”.
For `C/C=C(/C)C(=O)O[C@H]1C(C)=C2[C@H]([C@@H]1OC(=O)CCCCCCC)[C@@](C)(OC(C)=O)C[C@H](OC(=O)CCC)[C@@]1(O)[C@H]2OC(=O)[C@@]1(C)O` [Thapsigargin], the “predicted effect on DNA, nuclear size” value (AICS-16 (beta Actin)) was “no predicted effect on DNA, nuclear size, or microtubule formation”.
`O=S(=O)(NCCNC/C=C/c1ccc(Br)cc1)c1cccc2cnccc12` [H89] was tested, and the “predicted effect on DNA, nuclear size” value (AICS-61 (Histone)) was “no predicted effect on DNA, nuclear size, or microtubule formation”.
With `CC[C@@]1([C@@H]2O[C@@H]([C@H]3O[C@@](O)(CO)[C@H](C)C[C@@H]3C)C[C@@H]2C)CC[C@H]([C@]2(C)CC[C@]3(C[C@H](O)[C@@H](C)[C@@H]([C@@H](C)[C@@H](OC)[C@H](C)C(=O)O)O3)O2)O1` [Monensin] the “predicted effect on DNA, nuclear size” value [6] was “no predicted effect on DNA, nuclear size, or microtubule formation”.
With `COc1cc2nc(N3CCCN(C)CC3)nc(NC3CCN(Cc4ccccc4)CC3)c2cc1OC` [BIX-01294] the “predicted effect on DNA, nuclear size” value (AICS-44 (Golgi)) was “no predicted effect on DNA, nuclear size, or microtubule formation”.
